Source: patent US20020058591A1, “Herbicidal compositions” (priority 2000, published 2002)

Experiments:
Format in all cases: in vivo
[1] = test system: Echinochloa crus-galli (ECHCG); experiment: Example B.2 post-emergence spray, greenhouse, visual scoring; conditions: 28 days after application
Description: (§1) The individual components herbicide, surfactant and humectant with regard to type and application rate as stated in Tables 1-4 were added with stirring to a water application rate of 300 l/ha so that a homogeneous spray mixture was formed. The active substances rimsulfuron and nicosulfuron in the commercially available formulations Cato® WG25 (Du Pont) and Motivell® (BASF) were used for this purpose, respectively. Iodosulfuron-methyl-sodium and mesosulfuron-methyl were added in each case as 20 percent water-dispersible powders. Foramsulfuron was used as 50 percent water-dispersible granules. The surfactants used were Genapol® LRO as 70 percent paste (Clariant) and Synperonic® A7 (Unichema).
(§2) Visual scoring was carried out using a percentage scale of 0%=no damage to 100%=all plants dead.
(§3) Seeds of the harmful plants LOLMU, ALOMY, AVEFA, ECHCG and DIGSA were sown in a sandy loam soil in round pots type 7 in a greenhouse and watered slightly. A daytime temperature of 22 to 24° C. and a nighttime temperature of 16 to 18° C. was adhered to, a uniform day length of 16 hours being achieved by additional illumination with sodium vapor lamps (approx. 7000 lux). The relative atmospheric humidity was 60 to 80%. Two weeks after sowing, the plants were treated on a laboratory spray conveyor with the spray mixtures of rimsulfuron (A2), nicosulfuron (A3), iodosulfuron-methyl sodium (A4) and foramsulfuron (A5) and of combinations of A2, A3, A4 and A5 with Genapol® LRO and sodium lactate, the spray mixtures being prepared as in Example A. The water application rate for the spray application of the preparations was 300 l/ha. After the treatment, the plants were returned to the greenhouse.

Avena fatua (AVEFA) [2] = experiment: as above; conditions: 28 days after application
Description: as §1, §2, §3

[3] = test system: Alopecurus myosuroides (ALOMY); experiment: as above; conditions: 28 days after application
Description: as §1, §2, §3

[4] = test system: Lolium multiflorum (LOLMU); experiment: as above; conditions: 28 days after application
Description: as §1, §2, §3

[5] = test system: Digitaria adscendens (DIGSA); experiment: as above; conditions: 28 days after application
Description: as §1, §2, §3

Bromus tectorum (BROTE) = experiment: Example B.3 post-emergence spray, pots in the open, minimal irrigation, visual scoring; conditions: A1 10 g a.i./ha (surfactant 300, humectant 300 g a.i./ha where combined), 28 days after application
Description: as §1, §2
Seeds of the harmful plant BROTE were sown in a sandy loam soil in round pots type 13 in the open and watered slightly. During the entire experimental period, the substrate only received minimal irrigation. Four weeks after sowing, the plants were treated on a laboratory spray conveyor with spray mixtures of components mesosulfuron-methyl (A1), Genapol® LRO and sodium lactate, A1, Synperonic®A7 and sodium lactate and A1, Genapol® LRO and propylene glycol, the spray mixtures being prepared as in Example A. The water application rate for the spray application of the preparations was 300 l/ha. […]

[6] = test system: Lolium multiflorum (LOLMU); experiment: Example B.1 post-emergence spray, controlled-environment cabinet, minimal irrigation, visual scoring; conditions: A1 60 g a.i./ha (Genapol LRO 324, sodium lactate 150 g a.i./ha where combined); 14 days after application; 0%=no damage, 100%=all plants dead; 50% rel. humidity
Description: as §1, §2
(§4) Seeds of the harmful plants AVEFA and LOLMU were sown in a sandy loam soil in round pots type 13 in a controlled-environment cabinet and watered slightly. During the entire experiment period, the substrate only received minimal irrigation. A daytime temperature of 18° C. and a nighttime temperature of 16° C. was adhered to, a uniform day length of 16 hours being achieved by additional illumination with sodium vapor lamps (approx. 7000 lux). The relative atmospheric humidity was 50%. […]

Avena fatua (AVEFA) [7] = experiment: as above; conditions: A1 60 g a.i./ha (Genapol LRO 324, sodium lactate 150 g a.i./ha where combined); 14 days after application; 0%=no damage, 100%=all plants dead; 50% rel. humidity
Description: as §1, §2, §4

Structure (SMILES) | Action [%] against harmful plants ECHCG ([1]; herbicide 20 g a.i./ha) [%] | Action [%] against harmful plants AVEFA (Avena fatua (AVEFA) [2]; herbicide 20 g a.i./ha) [%] | Action [%] against harmful plants ALOMY ([3]; herbicide 20 g a.i./ha) [%] | Action [%] against harmful plants LOLMU ([4]; herbicide 20 g a.i./ha) [%] | Action [%] against harmful plants DIGSA ([5]; herbicide 20 g a.i./ha) [%] | other results
COc1cc(OC)nc(NC(=O)NS(=O)(=O)c2ncccc2C(=O)N(C)C)n1 [A3, 1-(3-N,N-dimethylaminocarbonylpyridin-2-ylsulfonyl)-3-(4,6-dimethoxypyrimidin-2-yl)urea] | 0 | 0 | 0 | – | – | –
COc1cc(OC)nc(NC(=O)NS(=O)(=O)c2cc(NC=O)ccc2C(=O)N(C)C)n1 [A5, N,N-dimethyl-2-[3-(4,6-dimethoxypyrimidin-2-yl)ureidosulfonyl]4-formylamino-benzamide] | 30 | 60 | 70 | 50 | 0 | –
COC(=O)c1ccc(I)cc1S(=O)(=O)NC(=O)Nc1nc(C)nc(OC)n1 [A4, 3-(4-methoxy-6-methyl-1,3,5-triazin-2-yl)-1-(2-methoxycarbonyl-5-iodophenyl-sulfonyl)urea] | 70 | 60 | 50 | 60 | 30 | –
CCS(=O)(=O)c1cccnc1S(=O)(=O)NC(=O)Nc1nc(OC)cc(OC)n1 [A2] | – | – | – | – | – | Action [%] against harmful plants ECHCG ([1]; herbicide 5 g a.i./ha): 10%; Action [%] against harmful plants LOLMU ([4]; herbicide 5 g a.i./ha): 60%; Action [%] against harmful plants DIGSA ([5]; herbicide 5 g a.i./ha): 30%; Action [%] against harmful plants AVEFA (Avena fatua (AVEFA) [2]; herbicide 5 g a.i./ha): 0%; Action [%] against harmful plants ALOMY ([3]; herbicide 5 g a.i./ha): 70%
COC(=O)c1ccc(CNS(C)(=O)=O)cc1S(=O)(=O)NC(=O)Nc1nc(OC)cc(OC)n1 [A1, methyl 2-[3-(4,6-dimethoxypyrimidin-2-yl)ureidosulfonyl]4-methanesulfonamido-methylbenzoate] | – | – | – | – | – | Action [%] against harmful plants BROTE (Bromus tectorum (BROTE)): 12.5%; Action [%] against harmful plants LOLMU [6]: 10%; Action [%] against harmful plants AVEFA (Avena fatua (AVEFA) [7]): 10%
